Columns and labels:
[1] = test system: PC-3 human prostate cancer cells; assay: MTT cell proliferation, PC-3; type: cell-based
Description: (§1) Cell proliferation was measured using dimethylthiazoldiphenyltetrazolium (MTT) reduction (Mosman et al. J. Immunol. Methods 65:55, 1983). Unless otherwise stated, 100 Al of 5 mg of MTT (Sigma-Aldrich, St. Louis, Mo., USA) dissolved in 1 ml of PBS was added into each well. After 4 h, medium was removed from each well, 1.0 ml of acid-isopropanol (0.04 N HCI in isopropanol) was added and reduced MTT was solubilized by mixing. Absorbency of the reaction product was measured at a wavelength of 570 nm using a multiplate spectrophotometer reader (Elx800 Model, Bio-TEK Instruments Inc., Winooski, Vt., USA).
(§2) Unless stated otherwise 1.0 x 10^5 cells/ml were seeded in 6-well flat-bottom tissue culture plates and were maintained for 48 h at 370 C in a 5% CO2 atmosphere.
(§3) PC-3, LNCAP and Du-145 human prostate cancer cells; MCF-7 human breast cancer cells; HT-1080 human fibrosarcoma cancer cells; B16F1 murine melanoma cells; and, UMUC-3, RT-4, HT-1376 and T-24 human bladder cancer cells were incubated with 0.8, 8.0 and 80 μg/ml of 5.0-7.5 x 10^5 Da HA (Table 2).
PC-3. LNCaP and Du-145 human prostate cancer cells were incubated with 8.0 jg/ml of 5.0-7.5 x 105 Da HA or of <1.5 x 10^4 Da HA (Table 3).
(§4) Unless stated otherwise 2.0 x 10^4 cells/ml were seeded in 24-well plates and were maintained for 48 h at 370 C in a 5% CO2 atmosphere. MTT was used at 50 μl per well.
T-24 human bladder cancer cells, PC-3 and Du-145 human prostate cancer cells, and MCF-7 human breast cancer cell were incubated with saline or with 80.0 jg/ml of 5.0-7.5 x 105 Da HA +1.0 μg/ml of M-DNA (Table 4).
(§5) CD44 expression and the inhibition of proliferation by 5.0-7.5 x 10^5 Da HA were measured using Jurkat T cell leukemia cells; MCF-7 human breast cancer cells; RT-4, T-24, HT-1376 and UMUC-3 human bladder cancer cells; and, PC-3, Du-145 and LNCaP prostate cancer cells (Table 8)

[2] = test system: IL-6 production by peripheral blood mononuclear cells; assay: IL-6 production by PBMCs (ELISA); type: cell-based, humans
Description: Peripheral blood mononuclear cells (hereinafter, “PBMCs”) were isolated from the blood of 5 healthy humans by Ficoll-Hypaque (Amersham Pharmacia Biotech, Baie d'Urfee, Quebec, Canada) density gradient centrifugation of whole blood. Stimulation of IL-6 and IL-12 production by the immune system cells was determined using the appropriate commercial ELISA (BioSource, Camarillo, CA, USA). Results are expressed as the “fold” (x) increases in cytokine production by treated cells compared to control cells.
PBMCs were incubated with 1 mg/ml of 5.0-7.5 x 105 Da and production of IL-6 and IL-12 was determined (Table 9).
PBMCs, isolated from the blood of individual #1, were incubated with 0.008, 0.04, 0.2 and 1 mg/ml of 5.0-7.5 x 10^5 Da (Table 10)

[3] = test system: Jurkat T cell leukemia cells; assay: MTT cell proliferation, Jurkat T; type: cell-based; conditions: HA 80 μg/ml
Description: as §1, §2, §5

[4] = test system: HT-1376 human bladder cancer cells; assay: MTT cell proliferation, HT-1376; type: cell-based
Description: as §1, §2, §3, §4
HT-1376, RT-4 and T-24 human bladder cancer cells were incubated with 0.8 pg/ml of 5.0-7.5 x 10^5 Da HA +1.0 ug/ml of MCC (Table 5).
as §5

Substance: Hyaluronic acid [5.0-7.5 × 10^5 Da HA]
- % INHIBITION of cell proliferation ([1]; HA 0.8 μg/ml, 48 h): 15%
- % INHIBITION of cell proliferation ([1]; HA 8.0 μg/ml, 48 h, listed as 0.5-7.5 × 10^5 Da HA): 26%
- % INHIBITION of cell proliferation ([1]; HA 80.0 μg/ml alone (+ saline), 24-well, Example 6): 30%
- IL-6 production, fold increase vs control cells ([2]; PBMCs of individual 1, HA 1 mg/ml): 3.8x
- IL-6 production, fold increase vs control cells ([2]; PBMCs of individual 2, HA 1 mg/ml): 1.8x
- IL-6 production, fold increase vs control cells ([2]; PBMCs of individual 3, HA 1 mg/ml): 4.1x
- IL-6 production, fold increase vs control cells ([2]; PBMCs of individual 4, HA 1 mg/ml): 1.4x
- IL-6 production, fold increase vs control cells ([2]; PBMCs of individual 5, HA 1 mg/ml): 6.3x
- IL-6 production, fold increase vs control cells ([2]; PBMCs of individual #1, HA 0.008 mg/ml): 2.4x
- IL-6 production, fold increase vs control cells ([2]; PBMCs of individual #1, HA 0.040 mg/ml): 3.5x
- IL-6 production, fold increase vs control cells ([2]; PBMCs of individual #1, HA 0.200 mg/ml): 2.9x
- % inhibition of proliferation [3]: 0%
- % INHIBITION of cell proliferation ([4]; HA 0.8 μg/ml, 48 h): 0%
- % INHIBITION of cell proliferation ([4]; HA 8.0 μg/ml, 48 h): 3%
- % INHIBITION of cell proliferation ([4]; HA 80.0 μg/ml, 48 h): 1%
- % INHIBITION of cell proliferation ([4]; HA at 0.8 μg/ml alone (+ saline), 24-well, Example 6): 3%

— US20030176381A1, “Hyaluronic acid in the treatment of cancer” (priority 2002, published 2003)
